[UNA] = unlocked nucleic acid; m = 2'-O-methyl; r = 2'-OH (RNA)
Legend:
[1] = system: HBV genome; assay: siRNA IC50 (Table A); design: species or system Hepatitis B virus
[2] = system: HBV cccDNA-dependent precore RNA in DESHAe82 cells; assay: DESHAe82 / DE19 cell culture system, cccDNA-derived precore RNA by qRT-PCR, MacSynergy II; assay type: cell-based, Hepatitis B virus; conditions: ETV μM: 0.01, 0.0032, 0.001, 0.0003, 0.0001, 3E−05, 0
Method: In vitro combination studies were conducted using a modification of the assay system described in Cai et al (Antimicrobial Agents Chemotherapy, 2012. Vol 56(8):4277-88). A previously developed HepDE19 cell culture system (Guo et al. J. Virology (2007) 81(22): 12472-12484) supports HBV DNA replication and cccDNA formation in a tetracycline (Tet)-regulated manner, and produces a detectable reporter molecule which is dependent upon the production and maintenance of cccDNA.
In the HepDE19 cell culture system, the reporters are the precore RNA and its cognate protein product, the secreted HBV “e antigen” (HBeAg). In HepDE19 cells, precore RNA and HBeAg are only produced from the cccDNA circular template, because the ORF of HBeAg and its 5′ RNA leader are separated between the opposite ends of the integrated viral genome, and only become contiguous with the formation of cccDNA. Although an assay based on the HepDE19 cell culture system is effective for determining activity, the results of high throughput screening may be complicated because the HBeAg ELISA cross reacts with a viral HBeAg homologue, which is the core antigen (HBcAg) expressed largely in a cccDNA-independent fashion in HepDE19 cells. To overcome this complication, an alternative cell culture system (designated herein as DESHAe82 cell culture system and described in PCT/EP/2015/06838) has been developed which includes an in-frame HA epitope tag in the N-terminal coding sequence of HBeAg in the transgene of DESHAe82 cells, without disrupting any cis-element critical for HBV replication, cccDNA transcription, and HBeAg secretion.
A chemiluminescence ELISA assay (CLIA) for the detection of HA-tagged HBeAg with HA antibody serving as capture antibody and […] has been developed, eliminating the contaminating signal from HBcAg. […] In addition, a protocol for quantitative reverse transcription and polymerase chain reaction (qRT-PCR) that is specific for detection of precore RNA in either DE19 or DESHAe82 cells was developed and is also used for the detection of the cccDNA-dependent mRNA (precore RNA) that is translated to produce HBeAg or HA-HBeAg.
To test the compound combinations, DESHAe82 or DE19 cells (as indicated in examples) were plated in 96 well tissue-culture treated microtiter plates in DMEM/F12 medium supplemented with 10% fetal bovine serum+1% penicillin-streptomycin with Tet, and incubated in a humidified incubator at 37° C. and 5% CO2 overnight. […] The two inhibitors were tested both singly as well as in combinations in a checkerboard fashion such that each test concentration of inhibitor A was combined with each test concentration of inhibitor B to determine their combination effects on inhibition of cccDNA formation and expression. Untreated negative control samples (0.5% DMSO or media only) were included on each plate in multiple wells. Following a 9 day-incubation, media was removed and cells were subjected to RNA extraction to measure the cccDNA-dependent precore mRNA level. Total cellular RNAs were extracted using a 96-well format total RNA isolation kit ([…]-NAGEL, Cat. 740466.4) by following the instruction of manufacturer (vacuum manifold processing, two more extra washes of Buffer RA4). RNA samples were eluted in RNAase-free water. Quantitative real-time RT-PCR was performed with a Roche LightCycler480 and RNA Master Hydrolysis probe (Catalog number 04991885001, Roche) using primers and conditions for specific detection of cccDNA-dependent precore RNA. GAPDH mRNA levels were also detected by standard methods and used to normalize the precore RNA levels.

| Compound | IC50 [1] | other results |
| --- | --- | --- |
| 6m: siRNA duplex SEQ ID NO: 11 and 12 targeting the HBV genome (chain 1 CUGGCUCAGUUUACUAGUGUU; chain 2 CACUAGUAAACUGAGCCAGUU; chain 1: sugars from the 5' end [UNA]mmmrrrrrrrrrrmrmrrr[UNA], backbone not given here; chain 2: sugars from the 5' end rrrrrmrrrrrrmrmrrrrrr, backbone not given here) [Compound 6m] | 0.05 nM |  |
| 7m: siRNA duplex SEQ ID NO: 13 and 14 targeting the HBV genome (chain 1 CCGUGUGCACUUCGCUUCAUU; chain 2 UGAAGCGAAGUGCACACGGUU; chain 1: sugars from the 5' end [UNA]rrrmmrrrrrmrrrmrrr[UNA][UNA], backbone not given here; chain 2: sugars from the 5' end rrrrrrrrrrrmrrrrrmr[UNA][UNA], backbone not given here) [Compound 7m] | 0.06 nM |  |
| 8m: siRNA duplex SEQ ID NO: 15 and 16 targeting the HBV genome (chain 1 GCUCAGUUUACUAGUGCCAUU; chain 2 UGGCACUAGUAAACUGAGCUU; chain 1: sugars from the 5' end [UNA]rmrrmrrrrrmrmrrrrr[UNA][UNA], backbone not given here; chain 2: sugars from the 5' end r14 m1 r4 [UNA]2, backbone not given here) [Compound 8m] | 0.24 nM |  |
| 9m: siRNA duplex SEQ ID NO: 17 and 18 targeting the HBV genome (chain 1 AGGUAUGUUGCCCGUUUGUUU; chain 2 ACAAACGGGCAACAUACCUUU; chain 1: sugars from the 5' end [UNA]mrmrrrmrrrrrmrmrrr[UNA][UNA], backbone not given here; chain 2: sugars from the 5' end rrrrrrmrrrrrrrmrrrm[UNA][UNA], backbone not given here) [Compound 9m] | 0.13 nM |  |
| 10m: siRNA duplex SEQ ID NO: 19 and 20 targeting the HBV genome (chain 1 GCCGAUCCAUACUGCGGAAUU; chain 2 UUCCGCAGUAUGGAUCGGCUU; chain 1: sugars from the 5' end [UNA]rrmrmrrrrrrmmrmmrr[UNA][UNA], backbone not given here; chain 2: sugars from the 5' end rrrrrrrmrrrrmrrrrmr[UNA][UNA], backbone not given here) [Compound 10m] | 0.34 nM |  |
| 11m: siRNA duplex SEQ ID NO: 21 and 22 targeting the HBV genome (chain 1 GCCGAUCCAUACUGCGGAAUU; chain 2 UUCCGCAGUAUGGAUCGGCUU; chain 1: sugars from the 5' end [UNA]rrmrmrrrrrrmmrmmrrr[UNA], backbone not given here; chain 2: sugars from the 5' end rrrrrrrmrrrrmrrrrmrrr, backbone not given here) [Compound 11m] | 0.31 nM |  |
| 12m: siRNA duplex SEQ ID NO: 23 and 24 targeting the HBV genome (chain 1 GCCGAUCCAUACUGCGGAAUU; chain 2 UUCCGCAGUAUGGAUCGGCUU; chain 1: sugars from the 5' end [UNA]rrmrmrrrrrrmmrrmrrr[UNA], backbone not given here; chain 2: sugars from the 5' end rrrrrrrmrrrrmrrrrmrrr, backbone not given here) [Compound 12m] | 0.16 nM |  |
| 13m: siRNA duplex SEQ ID NO: 25 and 26 targeting the HBV genome (chain 1 GCCGAUCCAUACUGCGGAAUU; chain 2 UUCCGCAGUAUGGAUCGGCUU; chain 1: sugars from the 5' end [UNA]rrmrmrrrrrrmmrrmrr[UNA][UNA], backbone not given here; chain 2: sugars from the 5' end rrrrrrrmrrrrmrrrrmr[UNA][UNA], backbone not given here) [Compound 13m] | 0.2 nM |  |
| 14m: siRNA duplex SEQ ID NO: 27 and 28 targeting the HBV genome (chain 1 GCUCAGUUUACUAGUGCCAUU; chain 2 UGGCACUAGUAAACUGAGCUU; chain 1: sugars from the 5' end [UNA]rmrrmrrrrrmrmrrrrrr[UNA], backbone not given here; chain 2: sugars from the 5' end r14 m1 r6, backbone not given here) [Compound 14m] | 0.16 nM |  |
| 15m: siRNA duplex SEQ ID NO: 29 and 30 targeting the HBV genome (chain 1 CUGGCUCAGUUUACUAGUGUU; chain 2 CACUAGUAAACUGAGCCAGUU; chain 1: sugars from the 5' end [UNA]mmrrmrrrrrmrrrrrrr[UNA][UNA], backbone not given here; chain 2: sugars from the 5' end r14 m1 r4 [UNA]2, backbone not given here) [Compound 15m] | 0.17 nM |  |
| C[C@@H](NS(=O)(=O)c1ccc(F)c(C(=O)Nc2ccc(F)c(F)c2)c1)c1cncs1 [Compound 4] |  | Average percent inhibition versus negative control (precore RNA) ([2]; Compound 4 0.032 μM): −49.48%; Average percent inhibition versus negative control (precore RNA) ([2]; Compound 4 0.100 μM): 66.78%; Average percent inhibition versus negative control (precore RNA) ([2]; Compound 4 0.317 μM): 94.67%; Average percent inhibition versus negative control (precore RNA) ([2]; Compound 4 1.001 μM): 93.92%; Average percent inhibition versus negative control (precore RNA) ([2]; Compound 4 3.165 μM): 97.88%; Average percent inhibition versus negative control (precore RNA) ([2]; Compound 4 10 μM): 97.53% |

Reference: US20220265817A1, “THERAPEUTIC COMPOSITIONS AND METHODS FOR TREATING HEPATITIS B” (priority 2017, published 2022)
